From paper PMC5378303 (Nature, 2017)

Molecular target: T1, phi3T AimR receptor (Bacillus phage phi3T, UniProt P0DOE3)
T1 sequence (P0DOE3 1-378): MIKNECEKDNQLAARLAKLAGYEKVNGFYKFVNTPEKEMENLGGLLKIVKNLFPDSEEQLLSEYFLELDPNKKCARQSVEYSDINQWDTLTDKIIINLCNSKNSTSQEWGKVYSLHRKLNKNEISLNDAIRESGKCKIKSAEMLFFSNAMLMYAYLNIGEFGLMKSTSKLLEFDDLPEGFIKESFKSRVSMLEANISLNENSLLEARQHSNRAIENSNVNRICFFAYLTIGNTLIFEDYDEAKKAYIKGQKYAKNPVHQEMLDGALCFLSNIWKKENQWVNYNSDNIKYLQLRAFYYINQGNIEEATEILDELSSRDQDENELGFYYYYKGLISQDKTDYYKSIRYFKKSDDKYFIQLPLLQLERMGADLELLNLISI
Assay: Microscale thermophoresis
Assay type: binding
Conditions: label-free MST, 200 nM AimR, peptide 9-4000 nM, pH 8.0, 23 °C, 3 runs

## GMPRGA
  binding to phi3T AimR (in words): did not show specific binding to the phi3T AimR receptor
